{
  "source": "patent US20080234245A1",
  "about": "“Angiostatic Agents for Controlling Choroidal Neovascularisation After Ocular Surgery or Trauma” (priority 2004, published 2008)",
  "key": {"[1]": {"conditions": "Clark 1999; cited from earlier work"}, "[2]": {"system": "choroidal neovascularization (CNV) in C57BL/J mice", "experiment": "Laser-induced choroidal neovascularization (CNV) in mice, rupture of Bruch's membrane", "format": "in vivo, mouse", "conditions": "for CNV versus vehicle-injected controls: single 5 μl intravitreal injection, 14 days post-laser", "from_the_text": "Choroidal neovascularization (CNV) was induced in C57BL/J mice by rupturing Bruch's membrane via focal laser photocoagulation (FIG. 3). (Tobe T, et al., AM. J. PATHOL., 153:1641-1646 (1998)). Three to four retinal burns were placed in randomly assigned eye using the Alcon 532 nm EyeLite laser (75 μm spot size, 0.1 seconds duration, 120 mW) with a slit lamp delivery system. The laser burns were used to generate a rupture in Bruch's membrane, which was indicated opthalmoscopically by the formation of a bubble under the retina. Only mice with laser burns that produced three bubbles per eye were included in the study. Burns were typically placed at the 3, 6, 9 or 12 o'clock positions in the posterior pole of the retina, avoiding the branch retinal arteries and veins.\nEach mouse was randomly assigned into one of the following treatment groups after laser: noninjected controls, sham-injected controls, vehicle-injected mice, or one of three anecortave acetate-injected groups. Control mice received laser photocoagulation in both eyes, where one eye received a sham injection, i.e. a pars plana needle puncture. For intravitreal-injected animals, one laser-treated eye received a 5 μl intravitreal injection of 0%, 0.1%, 1%, or 10% anecortave acetate. The intravitreal injection was performed immediately after laser photocoagulation.\nFourteen days post-laser, all mice were euthanized and systemically perfused with fluorescein-labeled dextran. Eyes were then harvested and prepared as choroidal flat mounts, and the 2-dimensional CNV area was quantified with computerized digital analysis, (Mori K., et al., AM. J. PATHOL. 159:313-320 (2001)). The median CNV area/burn per mouse per treatment was used for statistical analysis; P≦0.05 was considered significant."}, "[3]": {"system": "posterior segment neovascularization (NV)", "conditions": "intravitreal injection, rat OIR model (Penn 2001); cited from earlier work"}},
  "data": [
    {"smiles": "CC(=O)OCC(=O)[C@@]1(O)CC[C@H]2[C@@H]3CCC4=CC(=O)CC[C@]4(C)C3=CC[C@@]21C", "note": "[anecortave acetate, 4,9(11)-pregnadien-17α,21-diol-3,20-dione-21-acetate]", "values": [
      {"measurement": "conventional glucocorticoid (anti-inflammatory) or mineralocorticoid activity", "setting": "[1]", "value": "devoid of conventional glucocorticoid (anti-inflammatory) or mineralocorticoid activity"},
      {"measurement": "CNV versus vehicle-injected controls", "setting": "[2]; 0.1% anecortave acetate", "value": "No difference"},
      {"measurement": "CNV versus vehicle-injected controls", "setting": "[2]; 1% anecortave acetate", "value": "No difference"},
      {"measurement": "CNV development seen as hyperfluorescent area at the site of laser photocoagulation (FIG. 4)", "setting": "[2]; 10% anecortave acetate versus controls, choroidal flat mounts, fluorescein-labeled dextran", "value": "gross reduction in CNV development"},
      {"measurement": "effect on laser-induced choroidal neovascularization (FIG. 5)", "setting": "[2]; single intravitreal injection in the mouse", "value": "inhibits laser-induced choroidal neovascularization"},
      {"measurement": "efficacy against posterior segment neovascularization (NV)", "setting": "[3]", "value": "reproducible efficacy"}
    ]}
  ]
}
